# Assay results: patent US10028966B2 (Avalyn Pharma Inc., priority 2014, dated 2018)
# Assays:
# [1] = tested on: PI3K; conditions: cited from earlier work
# [2] = tested on: elastase; conditions: unprocessed CF sputum directly treated; cited from earlier work
# [3] = biological target: mTOR (Homo sapiens, UniProt P42345); conditions: cited from earlier work
# [4] = Pharmacokinetics and tissue distribution (lung, plasma, heart, kidney) of co-solvent formulations, intratracheal bolus aerosol; assay type: in vivo, Sprague-Dawley rats; conditions: pirfenidone about 4 mg/kg IT aerosol
# Protocol: Selected formulations were prepared for pharmacokinetic analysis following aerosol delivery to rat lung. […] Formulations prepared for this study are outlined in Table 9. […] The sample was agitated until completely dissolved. […] Filtered samples were analyzed by HPLC.
# [5] = primary metabolite; cited from earlier work
# [6] = tested on: p110-γ and p110-δ; conditions: inhibits all four isoforms; cited from earlier work
# [7] = tested on: EGFR mutation positive patients; conditions: cited from earlier work
# [8] = tested on: breast cancer stem cells; conditions: mice; cited from earlier work
# [9] = tested on: relapsed/refractory multiple myeloma; conditions: cited from earlier work
# [10] = tested on: cancer patients; conditions: cited from earlier work
molecule,measurement,setting,value
DNase,increase of sol elastase activity,[2],190%
Cc1c(CN2CCN(S(C)(=O)=O)CC2)sc2c(N3CCOCC3)nc(-c3cnc(N)nc3)nc12 [GNE-477],IC50,[3],21 nM
O=C(O)c1ccc(=O)n(-c2ccccc2)c1,"5-carboxy metabolite, lung tissue, Mean",[4]; 0 MIN (one value for all groups),0.00 μg/gram
same,"5-carboxy metabolite, lung tissue, Mean","[4]; Group 1, 0.0333 hr",0.12 μg/gram
same,"5-carboxy metabolite, lung tissue, Mean","[4]; Group 1, 0.0667 hr",0.13 μg/gram
same,"5-carboxy metabolite, lung tissue, Mean","[4]; Group 1, 0.100 hr",0.48 μg/gram
same,"5-carboxy metabolite, lung tissue, Mean","[4]; Group 1, 0.167 hr",0.49 μg/gram
same,"5-carboxy metabolite, lung tissue, Mean","[4]; Group 1, 0.333 hr",0.96 μg/gram
same,"5-carboxy metabolite, lung tissue, Mean","[4]; Group 1, 0.667 hr",0.96 μg/gram
same,"5-carboxy metabolite, lung tissue, Mean","[4]; Group 1, 1 hr",0.73 μg/gram
same,"5-carboxy metabolite, lung tissue, Mean","[4]; Group 1, 2 hr",0.21 μg/gram
same,"5-carboxy metabolite, lung tissue, Mean","[4]; Group 1, 2.50 hr",0.10 μg/gram
same,"5-carboxy metabolite, lung tissue, Mean","[4]; Group 1, […]",0.48 μg/gram
same,"5-carboxy metabolite, lung tissue, Mean","[4]; Group 3, 0.0333 hr",0.05 μg/gram
same,"5-carboxy metabolite, lung tissue, Mean","[4]; Group 3, 0.0667 hr",0.36 μg/gram
same,"5-carboxy metabolite, lung tissue, Mean","[4]; Group 3, 0.100 hr",0.55 μg/gram
same,"5-carboxy metabolite, lung tissue, Mean","[4]; Group 3, 0.167 hr",0.86 μg/gram
same,"5-carboxy metabolite, lung tissue, Mean","[4]; Group 3, 0.333 hr",1.09 μg/gram
same,"5-carboxy metabolite, lung tissue, Mean","[4]; Group 3, 0.667 hr",0.81 μg/gram
same,"5-carboxy metabolite, lung tissue, Mean","[4]; Group 3, 1 hr",0.70 μg/gram
same,"5-carboxy metabolite, lung tissue, Mean","[4]; Group 3, 2 hr",0.32 μg/gram
same,"5-carboxy metabolite, lung tissue, Mean","[4]; Group 3, 2.50 hr",0.14 μg/gram
same,"5-carboxy metabolite, lung tissue, Mean","[4]; Group 3, […]",0.52 μg/gram
same,"5-carboxy metabolite, lung tissue, Mean","[4]; Group 5, 0.0333 hr",0.17 μg/gram
same,"5-carboxy metabolite, lung tissue, Mean","[4]; Group 5, 0.0667 hr",0.42 μg/gram
same,"5-carboxy metabolite, lung tissue, Mean","[4]; Group 5, 0.100 hr",0.35 μg/gram
same,"5-carboxy metabolite, lung tissue, Mean","[4]; Group 5, 0.167 hr",0.53 μg/gram
same,"5-carboxy metabolite, lung tissue, Mean","[4]; Group 5, 0.333 hr",1.32 μg/gram
same,"5-carboxy metabolite, lung tissue, Mean","[4]; Group 5, 0.667 hr",0.96 μg/gram
same,"5-carboxy metabolite, lung tissue, Mean","[4]; Group 5, 1 hr",0.75 μg/gram
same,"5-carboxy metabolite, lung tissue, Mean","[4]; Group 5, 2 hr",0.18 μg/gram
same,"5-carboxy metabolite, lung tissue, Mean","[4]; Group 5, 2.50 hr",0.10 μg/gram
same,"5-carboxy metabolite, lung tissue, Mean","[4]; Group 5, […]",0.45 μg/gram
same,"5-carboxy metabolite, lung tissue, Mean","[4]; Group 6, 0.0333 hr",0.17 μg/gram
same,"5-carboxy metabolite, lung tissue, Mean","[4]; Group 6, 0.0667 hr",0.43 μg/gram
same,"5-carboxy metabolite, lung tissue, Mean","[4]; Group 6, 0.100 hr",0.37 μg/gram
same,"5-carboxy metabolite, lung tissue, Mean","[4]; Group 6, 0.167 hr",0.64 μg/gram
same,"5-carboxy metabolite, lung tissue, Mean","[4]; Group 6, 0.333 hr",0.94 μg/gram
same,"5-carboxy metabolite, lung tissue, Mean","[4]; Group 6, 0.667 hr",0.92 μg/gram
same,"5-carboxy metabolite, lung tissue, Mean","[4]; Group 6, 1 hr",0.78 μg/gram
same,"5-carboxy metabolite, lung tissue, Mean","[4]; Group 6, 2 hr",0.24 μg/gram
same,"5-carboxy metabolite, lung tissue, Mean","[4]; Group 6, 2.50 hr",0.14 μg/gram
same,"5-carboxy metabolite, lung tissue, Mean","[4]; Group 6, […]",0.43 μg/gram
O=C(O)c1ccc(=O)n(-c2ccccc2)c1 [5-carboxy-pirfenidone],share of urinary excretion,[5],95%
"O=C(O)CCCC[C@@H](S)CCS (racemic) [DHLA, dihydrolipoic acid]",increase of sol elastase activity,[2],did not increase elastase activity
Nc1nc(N)c2nc(-c3cccc(O)c3)c(-c3cccc(O)c3)nc2n1 [TG100-115],fold better potency against p110-γ and p110-δ,[6],5-10 fold
C#Cc1cccc(Nc2ncnc3cc(OCCOC)c(OCCOC)cc23)c1 [Erlotinib],response rate,[7],approximately 60%
CC[C@@H](C(=O)[C@@H](C)[C@@H](O)[C@H](C)[C@@H]1O[C@@H]([C@@H](CC)C(=O)O)CC[C@@H]1C)[C@H]1O[C@]2(C=C[C@@H](O)[C@]3(CC[C@@](C)([C@H]4CC[C@](O)(CC)[C@H](C)O4)O3)O2)[C@H](C)C[C@@H]1C [Salinomycin],"killing of breast cancer stem cells, times more effectively than paclitaxel",[8],at least 100 times
CC(C)C[C@H](NC(=O)[C@H](Cc1ccccc1)NC(=O)c1cnccn1)B(O)O [Bortezomib],patients with peripheral neuropathy,"[9]; human, in vivo",30%
same,time to peak concentrations,[9]; intravenous administration,about 30 minutes
N#CC1(c2ccc(NC(=O)c3cccnc3NCc3ccncc3)cc2)CCCC1 [Apatinib],complete response,"[10]; 65 cancer patients, Phase I/II",1.54%
same,partial response,"[10]; 65 cancer patients, Phase I/II",12.31%
same,progressive disease,"[10]; 65 cancer patients, Phase I/II",20%
same,stable disease,"[10]; 65 cancer patients, Phase I/II",66.15%
same,maximum tolerated dose,[10]; daily for 28 days,850 mg/day
"reduced rhTrx: stable reduced form of recombinant human thioredoxin (protein, UniProt P10599 2-105, looked up, reduced form) Thioredoxin: VKQIESKTAFQEALDAAGDKLVVVDFSATWCGPCKMIKPFFHSLSEKYSNVIFLEVDVDDCQDVASECEVKCMPTFQFFKKGQKVGEFSGANKEKLEATINELV",increase of sol elastase activity,[2],60%
